Laboratory results as given in patent publication US6534499B2, “N-substituted-N′-substituted urea derivatives and the use thereof as TNF-α production inhibitory agents” (Santen Pharmaceutical Co., Ltd., priority 1999, dated 2003).

System: not given
Test: not given
Settings: not given

SMILES	melting point
O=C(NCC1CCN(C(=O)OCc2ccccc2)CC1)N(CCO)CCC1CCCCC1 [Compound 1-18, 1-[[1-(Benzyloxycarbonyl)-4-piperidyl]methyl]-3-(2-cyclohexylethyl)-3-(2-hydroxy-ethyl) urea]	94.5 to 95.5 °C
CC(=O)SCCN(CCC1CCCCC1)C(=O)NCCN1CCC(N(C)C)CC1.Cl.Cl [Compound 6-2, 1-[2-(Acetylthio)ethyl]-1-(2-cyclohexylethyl)-3-[2-[4-(dimethylamino)-1-piperidyl]ethyl]urea di-hydrochloride]	170 °C (dec.)

System: TNF-α production induced by LPS (plasma TNF-α)
Test: In vivo test: plasma TNF-α level in LPS-administered mice
Settings: female mice; 10 mg/kg subcutaneously immediately after LPS i.p.; plasma one hour after LPS; mouse TNF-α ELISA
Protocol: (§1) Each candidate compound was inspected for the effect of inhibiting TNF-α production induced by the stimulation with lipopolysaccharide (LPS), by an in vitro or in vivo test according to the method proposed by McGeehan et al. (Nature, 1994, 370:558-561).
Animals used herein were about 7-week-old female mice (5 animals per group) having a body weight of about 20 g. The LPS herein used was derived from Salmonella and it was dissolved in phosphate-buffered physiological saline prior to the practical use (20 μg/ml). Each candidate compound was dissolved or suspended in a 2% dimethyl sulfoxide-containing physiological saline to give a uniform solution or suspension (1 mg/ml).
The LPS solution (10 ml/kg) prepared above was intraperitoneally administered to each test mouse. Immediately after the administration of the LPS solution, the solution of each candidate compound prepared above (10 ml/kg, containing 10 mg/kg of the candidate compound) was subcutaneously injected to each animal. After one hour from the administration of the LPS, each animal was decapitated, the blood was collected from the animal and the blood was centrifuged at 4° C., 3000 rpm for 5 minutes. The resulting plasma was inspected for the level of TNF-α using the mouse TNF-α -specific ELISA kit. In this connection, any TNF-α was not detected in the plasma derived from the animal group free of the LPS-administration (control group).
The rate of TNF-α production-inhibitory effect observed for each candidate compound was determined according to the following equation:
Inhibitory Rate (%)=100×(A−B)/A
Wherein A is the level of TNF-α detected in the plasma derived from the animal group to which any candidate compound was not administered and B is the level of TNF-α detected in the plasma derived from the animal group to which a candidate compound was administered.

SMILES	Inhibitory Rate (%) of TNF-α production [%]
CCN1CCCC1CNC(=O)N(CCSC(C)=O)CCC1CCCCC1 (racemic) [Compound 3-17, 1-[2-(Acetylthio)ethyl]-1-(2-cyclohexylethyl)-3-[[(2RS)-1-ethyl-2-pyrrolidinyl]methyl] urea]	52
CSCCN(CCC1CCCCC1)C(=O)NCCN1CCCCC1.Cl [Compound 6-4, 1-(2-Cyclohexylethyl)-1-[2-(methylthio)ethyl]-3-[2-(1-piperidyl)ethyl]urea hydrochloride]	59
CC(=O)SCCN(CCC1CCCCC1)C(=O)NCCCN1CCCC1 [Compound 3-3, 1-[2-(Acetylthio)ethyl]-1-(2-cyclohexylethyl)-3-[3-(1-pyrrolidinyl)propyl]-urea]	64
CC(=O)SCCN(CCC1CCCCC1)C(=O)NCCN1CCCCCC1 [Compound 3-9, 1-[2-(Acetylthio)ethyl]-1-(2-cyclohexylethyl)-3-[2-(l-homopiperidyl)ethyl]-urea]	76
CC(=O)SCCN(CCC1CCCCC1)C(=O)NCCCN1CCCCC1 [Compound 3-4, 1-[2-(Acetylthio)ethyl]-1-(2-cyclohexylethyl)-3-[3-(1-piperidyl)propyl]urea]	51
CC(=O)SCCN(CCC1CCCCC1)C(=O)NCCN1CCCC1 [Compound 3-2, 1-[2-(Acetylthio)ethyl]-1-(2-cyclohexylethyl)-3-[2-(1-pyrrolidinyl)ethyl]-urea]	50
CC(=O)SCCN(CCC1CCCCC1)C(=O)NCC1CCN(C)CC1.Cl [Compound 6-3, 1-[2-(Acetylthio)ethyl]-1-(2-cyclohexylethyl)-3-[(1-methyl-4-piperidyl)-methyl]urea hydrochloride]	50
CC(=O)SCCN(CCC1CCCCC1)C(=O)NCCN1CCCCC1.Cl [Compound 6-1, 1-[2-(Acetylthio)ethyl]-1-(2-cyclohexylethyl)-3-[2-(1-piperidyl)-ethyl]urea hydrochloride]	78

System: TNF-α produced by the human monocyte strain THP-1
Test: In vitro test: TNF-α production by THP-1 cells induced by stimulation with LPS
Assay type: cell-based
Settings: 2 h; compound 10^−5M; THP-1 cells 10^6 cells/ml; LPS 2 μg/ml; 37° C., two hours; human TNF-α ELISA; read-out: Inhibitory Rate (%) of TNF-α production
Protocol: as §1
The test was carried out by, determining the amount of TNF-α produced by the human monocyte strain THP-1 induced by the stimulation with LPS.
The culture medium used in this test was RPMI 1640 culture medium supplemented wiTNFetal calf serum (10%), L-glutamine (2 mM), 2-mercaptoethanol (50 μM), penicillin (50 units/ml) and streptomycin (50 μg/ml).
Regarding the cells, the human monocyte strain THP-1 cells cultivated in the foregoing culture medium were centrifuged at 100 xg for 5 minutes to remove the supernatant and then again suspended in a fresh culture medium prior to the practical use. The LPS used herein was derived from S. Typhimurium and this was dissolved in purified water and then diluted with the culture medium prior to use. Each compound to be tested was dissolved in dimethyl sulfoxide (DMSO) and diluted with the culture medium prior to the practical use.
The cells (10^6 cells/ml) prepared according to the foregoing method were admixed with the LPS (2 μg/ml) and a compound to be tested (10^−5M), the cells were incubated at 37° C. for two hours and then centrifuged at 1000 xg for 5 minutes. The resulting supernatant of the culture medium was inspected for the level of TNF-α using the human TNF-α -specific ELISA kit. In this connection, it was confirmed that the supernatant obtained by cultivating the cells in the culture medium free of any LPS (control) never included any TNF-α.
The rate of the TNF-α production inhibitory effect observed for each candidate compound was determined according to the following equation: […]
Wherein A is the level of TNF-α detected in the supernatant obtained from the culture medium free of any candidate compound and B is the level of TNF-α detected in the supernatant obtained from the culture medium containing a candidate compound.

SMILES	inhibition at 10 µM [%]
CC(=O)SCCN(CCC1CCCCC1)C(=O)NCCN1CC=CCC1 [Compound 3-13, 1-[2-(Acetylthio)ethyl]-1-(2-cyclohexylethyl)-3-[2-(1,2,5,6-tetrahydropyridin-1-yl)ethyl] urea]	66
CC(=O)SCCN(CCC1CCCCC1)C(=O)NCCN1CCC(N(C)C)CC1.Cl.Cl [Compound 6-2, 1-[2-(Acetylthio)ethyl]-1-(2-cyclohexylethyl)-3-[2-[4-(dimethylamino)-1-piperidyl]ethyl]urea di-hydrochloride]	58
CC(=O)SCCN(CCc1ccccc1)C(=O)N[C@@H](Cc1ccccc1)CN1CCN(C)CC1 [Compound 3-6, 1-[2-(Acetylthio)ethyl]-3-[(1S)-1-benzyl-2-(4-methylpiperazin-1-yl)ethyl]-1-phenethyl urea]	94
